Measured values as given in article PMC10174618, “Monoterpenoid aryl hydrocarbon receptor allosteric antagonists protect against ultraviolet skin damage in female mice” (Nature Communications, 2023).

Key:
Assay in all cases: biochemical
Set-up in all cases: KINOMEscan scanMAX active site-directed competition binding assay, percent of control, 468 kinases
Conditions in all cases: competition binding, percent of control
CLK1 = CLK1 (Homo sapiens, UniProt P49759)
Experimental: (§1) The KINOMEscan^TM screening platform (scanMAX assay) employs a proprietary active site-directed competition binding assay that quantitatively measures the interactions between test compounds (here 100 μM S-carvone) and 468 human protein kinases. The assay was performed at Eurofins DiscoverX Corp. (Fremont, CA, USA). Blocking protein kinase C (PKC) activity was reported to inhibit the transcription of CYP1A1 but to exert no effect on the nuclear translocation of AhR[26], which was also the case here with carvones. Therefore, we tested whether carvones inhibit PKC catalytic activity. […] We also evaluated the interaction between 100 μM S-carvone and 468 human protein kinases, employing KINOMEscan^TM (scanMAX assay), a proprietary active site-directed competition binding assay. The minimal inhibitory threshold used by the screening platform KINOMEscan^TM is 35% of the control kinase activity. Among 468 kinases tested, 467 were above the 35% cutoff. Tyrosine kinase 2 TK2 (JH2 domain pseudokinase) activity was inhibited to 27% of the control activity, but this kinase is not relevant to the regulation of transcription activity (Fig. 5B; Figure S9). Overall, we excluded the possibility that the effects of carvones on AhR signaling are caused indirectly by the inhibition of the human kinome, particularly PKC.

CAMK2G = CAMK2G (Homo sapiens, UniProt Q13555)
Experimental: as §1

TGFBR1 = TGFBR1 (Homo sapiens, UniProt P36897)
Experimental: as §1

BRAF = BRAF (Homo sapiens, UniProt P15056)
Experimental: as §1

IRAK1 = IRAK1 (Homo sapiens, UniProt P51617)
Experimental: as §1

AURKB = AURKB (Homo sapiens, UniProt Q96GD4)
Experimental: as §1

CLK2 = CLK2 (Homo sapiens, UniProt P49760)
CLK2, sequence (P49760 whole entry): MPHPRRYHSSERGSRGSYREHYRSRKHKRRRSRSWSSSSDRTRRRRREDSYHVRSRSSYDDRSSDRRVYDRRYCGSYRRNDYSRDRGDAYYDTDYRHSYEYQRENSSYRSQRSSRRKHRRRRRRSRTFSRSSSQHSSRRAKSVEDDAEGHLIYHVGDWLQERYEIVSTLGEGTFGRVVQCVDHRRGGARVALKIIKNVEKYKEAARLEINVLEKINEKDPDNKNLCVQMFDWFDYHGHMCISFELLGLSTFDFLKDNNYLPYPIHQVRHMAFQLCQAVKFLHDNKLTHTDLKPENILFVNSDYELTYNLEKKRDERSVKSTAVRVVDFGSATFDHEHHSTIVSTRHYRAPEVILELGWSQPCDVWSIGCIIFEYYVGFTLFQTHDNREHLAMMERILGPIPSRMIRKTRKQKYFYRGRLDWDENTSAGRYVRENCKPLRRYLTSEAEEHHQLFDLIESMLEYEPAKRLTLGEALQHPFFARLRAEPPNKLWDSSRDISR
Experimental: as §1

RIPK5 = molecular target: T1, RIPK5 (Homo sapiens, UniProt Q6XUX3)
T1 construct: gene DSTYK
Experimental: as §1

[1] = molecular target: EGFR(L747-S752del, P753S) (Homo sapiens, UniProt P00533, DEL747-752/P753S)
Experimental: as §1

PHKG2 = PHKG2 (Homo sapiens, UniProt P15735)
Experimental: as §1

TAOK3 = TAOK3 (Homo sapiens, UniProt Q9H2K8)
Experimental: as §1

MKNK1 = MKNK1 (Homo sapiens, UniProt Q9BUB5)
MKNK1, sequence (Q9BUB5 whole entry): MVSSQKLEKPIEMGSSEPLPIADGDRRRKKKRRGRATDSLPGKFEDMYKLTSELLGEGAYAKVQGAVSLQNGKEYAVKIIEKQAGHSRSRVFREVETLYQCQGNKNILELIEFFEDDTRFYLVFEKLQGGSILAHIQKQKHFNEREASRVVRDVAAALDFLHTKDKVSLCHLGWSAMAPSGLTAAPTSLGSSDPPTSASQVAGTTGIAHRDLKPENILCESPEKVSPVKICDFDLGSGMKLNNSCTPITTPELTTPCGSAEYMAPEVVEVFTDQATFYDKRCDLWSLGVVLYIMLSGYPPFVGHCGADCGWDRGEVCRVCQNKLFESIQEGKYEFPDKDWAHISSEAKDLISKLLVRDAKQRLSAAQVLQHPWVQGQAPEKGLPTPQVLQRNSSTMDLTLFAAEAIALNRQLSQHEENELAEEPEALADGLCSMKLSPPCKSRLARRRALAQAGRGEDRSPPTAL
Experimental: as §1

EPHB3 = EPHB3 (Homo sapiens, UniProt P54753)
Experimental: as §1

MYLK = MYLK (Homo sapiens, UniProt Q15746)
MYLK, sequence (Q15746 whole entry): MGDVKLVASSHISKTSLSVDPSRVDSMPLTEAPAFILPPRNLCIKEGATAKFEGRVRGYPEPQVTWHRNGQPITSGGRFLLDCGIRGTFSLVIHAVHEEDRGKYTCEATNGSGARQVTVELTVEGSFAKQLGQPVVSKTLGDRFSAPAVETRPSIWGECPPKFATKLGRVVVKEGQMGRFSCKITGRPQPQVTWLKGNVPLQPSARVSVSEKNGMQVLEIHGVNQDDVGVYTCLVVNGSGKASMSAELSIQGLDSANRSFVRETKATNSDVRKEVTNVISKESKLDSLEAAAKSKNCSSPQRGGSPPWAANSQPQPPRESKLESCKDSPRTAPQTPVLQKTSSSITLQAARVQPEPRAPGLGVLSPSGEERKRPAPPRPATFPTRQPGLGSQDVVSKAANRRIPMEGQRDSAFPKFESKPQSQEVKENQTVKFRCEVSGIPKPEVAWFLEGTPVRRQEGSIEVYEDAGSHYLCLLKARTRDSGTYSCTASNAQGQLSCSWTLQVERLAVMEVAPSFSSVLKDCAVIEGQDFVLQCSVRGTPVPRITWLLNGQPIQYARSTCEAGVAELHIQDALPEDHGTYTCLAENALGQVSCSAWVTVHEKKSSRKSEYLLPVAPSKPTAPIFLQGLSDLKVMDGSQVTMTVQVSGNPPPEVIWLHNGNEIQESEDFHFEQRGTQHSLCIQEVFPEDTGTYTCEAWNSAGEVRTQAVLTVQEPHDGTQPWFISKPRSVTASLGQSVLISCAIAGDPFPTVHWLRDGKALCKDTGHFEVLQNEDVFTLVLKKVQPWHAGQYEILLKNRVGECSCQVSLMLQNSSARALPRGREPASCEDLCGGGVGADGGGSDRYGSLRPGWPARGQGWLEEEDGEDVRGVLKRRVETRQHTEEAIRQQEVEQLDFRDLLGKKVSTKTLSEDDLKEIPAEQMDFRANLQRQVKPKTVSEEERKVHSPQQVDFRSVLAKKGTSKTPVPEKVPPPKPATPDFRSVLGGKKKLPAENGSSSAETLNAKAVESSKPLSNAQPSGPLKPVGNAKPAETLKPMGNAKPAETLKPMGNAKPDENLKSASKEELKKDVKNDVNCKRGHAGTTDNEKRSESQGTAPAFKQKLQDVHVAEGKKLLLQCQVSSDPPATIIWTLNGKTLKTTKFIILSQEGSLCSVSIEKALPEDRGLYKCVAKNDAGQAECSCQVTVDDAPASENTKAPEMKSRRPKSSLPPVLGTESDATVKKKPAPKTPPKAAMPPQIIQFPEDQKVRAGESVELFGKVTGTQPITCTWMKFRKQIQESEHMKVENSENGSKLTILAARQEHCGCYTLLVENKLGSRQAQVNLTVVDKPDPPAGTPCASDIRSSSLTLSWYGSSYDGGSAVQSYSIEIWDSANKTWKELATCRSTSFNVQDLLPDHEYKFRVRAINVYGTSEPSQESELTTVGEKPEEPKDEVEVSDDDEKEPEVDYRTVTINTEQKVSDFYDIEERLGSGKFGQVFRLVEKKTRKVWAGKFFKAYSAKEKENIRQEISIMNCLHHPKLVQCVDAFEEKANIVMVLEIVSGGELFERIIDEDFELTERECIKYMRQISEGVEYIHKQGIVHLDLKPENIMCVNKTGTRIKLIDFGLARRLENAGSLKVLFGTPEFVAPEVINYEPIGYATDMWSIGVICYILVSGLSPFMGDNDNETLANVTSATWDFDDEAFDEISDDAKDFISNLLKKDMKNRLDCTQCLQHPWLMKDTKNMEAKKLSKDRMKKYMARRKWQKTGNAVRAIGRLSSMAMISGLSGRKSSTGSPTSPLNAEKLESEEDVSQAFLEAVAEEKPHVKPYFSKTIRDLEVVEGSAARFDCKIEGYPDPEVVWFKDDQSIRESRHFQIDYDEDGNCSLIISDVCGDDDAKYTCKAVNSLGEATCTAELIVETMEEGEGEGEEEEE
Experimental: as §1

ROS1 = ROS1 (Homo sapiens, UniProt P08922)
Experimental: as §1

MRCKB = molecular target: T2, MRCKB (Homo sapiens, UniProt Q9Y5S2)
T2 construct: gene CDC42BPB
T2 sequence (Q9Y5S2 whole entry): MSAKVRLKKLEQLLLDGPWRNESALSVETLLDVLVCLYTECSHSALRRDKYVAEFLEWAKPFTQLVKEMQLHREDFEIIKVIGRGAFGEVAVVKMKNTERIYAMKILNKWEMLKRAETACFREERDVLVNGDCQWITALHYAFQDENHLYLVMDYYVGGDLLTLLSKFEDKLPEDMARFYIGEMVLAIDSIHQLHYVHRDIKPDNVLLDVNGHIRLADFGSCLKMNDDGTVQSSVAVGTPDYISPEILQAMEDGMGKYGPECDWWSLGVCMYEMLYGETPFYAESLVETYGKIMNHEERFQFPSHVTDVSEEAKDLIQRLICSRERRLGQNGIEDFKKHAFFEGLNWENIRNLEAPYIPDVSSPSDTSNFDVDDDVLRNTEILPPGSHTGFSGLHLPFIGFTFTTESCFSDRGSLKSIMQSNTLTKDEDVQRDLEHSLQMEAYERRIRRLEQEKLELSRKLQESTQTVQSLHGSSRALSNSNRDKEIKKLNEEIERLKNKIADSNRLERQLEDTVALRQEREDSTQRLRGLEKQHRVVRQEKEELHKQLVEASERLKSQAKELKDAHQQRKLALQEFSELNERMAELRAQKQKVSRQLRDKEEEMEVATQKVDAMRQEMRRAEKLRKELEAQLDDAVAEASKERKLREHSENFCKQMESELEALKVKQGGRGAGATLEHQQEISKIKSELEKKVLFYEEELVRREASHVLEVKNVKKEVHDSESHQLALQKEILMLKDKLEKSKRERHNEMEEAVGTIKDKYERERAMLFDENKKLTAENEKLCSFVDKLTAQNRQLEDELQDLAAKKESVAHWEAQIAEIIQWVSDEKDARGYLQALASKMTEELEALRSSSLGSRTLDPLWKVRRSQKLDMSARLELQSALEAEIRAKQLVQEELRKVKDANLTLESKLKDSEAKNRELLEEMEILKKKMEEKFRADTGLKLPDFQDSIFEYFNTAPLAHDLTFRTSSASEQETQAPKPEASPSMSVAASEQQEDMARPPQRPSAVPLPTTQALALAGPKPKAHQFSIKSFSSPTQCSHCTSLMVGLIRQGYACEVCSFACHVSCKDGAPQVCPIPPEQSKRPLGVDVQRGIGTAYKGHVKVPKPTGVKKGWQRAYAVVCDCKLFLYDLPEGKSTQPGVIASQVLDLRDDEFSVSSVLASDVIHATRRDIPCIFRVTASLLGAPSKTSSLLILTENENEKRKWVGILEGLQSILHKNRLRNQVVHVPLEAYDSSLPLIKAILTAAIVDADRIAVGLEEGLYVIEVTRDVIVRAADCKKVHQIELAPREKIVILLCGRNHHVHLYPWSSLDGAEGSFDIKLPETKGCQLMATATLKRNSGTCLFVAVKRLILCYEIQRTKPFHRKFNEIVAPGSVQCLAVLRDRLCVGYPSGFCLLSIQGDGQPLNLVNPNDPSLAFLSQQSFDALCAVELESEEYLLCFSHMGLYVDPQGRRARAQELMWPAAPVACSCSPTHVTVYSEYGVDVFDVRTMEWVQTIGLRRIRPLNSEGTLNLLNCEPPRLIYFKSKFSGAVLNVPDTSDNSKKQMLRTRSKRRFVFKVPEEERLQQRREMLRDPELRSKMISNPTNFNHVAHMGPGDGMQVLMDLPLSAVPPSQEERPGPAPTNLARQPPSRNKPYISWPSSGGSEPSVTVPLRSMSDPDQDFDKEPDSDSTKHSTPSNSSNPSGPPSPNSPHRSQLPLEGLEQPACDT
Experimental: as §1

TGFBR2 = TGFBR2 (Homo sapiens, UniProt P37173)
Experimental: as §1

FLT3(D835Y) = FLT3(D835Y) (Homo sapiens, UniProt P36888, D835Y)
Experimental: as §1

[2] = molecular target: T3, RSK1(Kin.Dom.2-C-terminal) (Homo sapiens, UniProt Q15418)
T3 construct: gene RPS6KA1; Kin.Dom.2-C-terminal
Experimental: as §1

DAPK1 = DAPK1 (Homo sapiens, UniProt P53355)
Experimental: as §1

RIOK3 = RIOK3 (Homo sapiens, UniProt O14730)
RIOK3, sequence (O14730 whole entry): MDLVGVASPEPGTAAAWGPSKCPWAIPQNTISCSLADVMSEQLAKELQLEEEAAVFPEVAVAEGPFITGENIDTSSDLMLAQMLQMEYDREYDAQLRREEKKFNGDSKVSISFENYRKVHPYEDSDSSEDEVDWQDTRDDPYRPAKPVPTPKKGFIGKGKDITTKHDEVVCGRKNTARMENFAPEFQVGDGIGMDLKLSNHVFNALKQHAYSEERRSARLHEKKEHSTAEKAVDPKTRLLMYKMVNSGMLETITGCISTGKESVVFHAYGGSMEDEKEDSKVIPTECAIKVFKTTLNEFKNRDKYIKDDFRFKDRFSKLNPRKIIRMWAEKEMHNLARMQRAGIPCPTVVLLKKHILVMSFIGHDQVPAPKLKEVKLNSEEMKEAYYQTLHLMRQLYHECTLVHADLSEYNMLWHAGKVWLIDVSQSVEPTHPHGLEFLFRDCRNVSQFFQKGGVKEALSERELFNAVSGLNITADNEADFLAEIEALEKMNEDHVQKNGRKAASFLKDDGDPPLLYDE
Experimental: as §1

remaining binding at 100 µM (CLK1): 94%
remaining binding at 100 µM (CAMK2G): 84%
remaining binding at 100 µM (TGFBR1): 100%
remaining binding at 100 µM (BRAF): 83%
remaining binding at 100 µM (IRAK1): 65%
remaining binding at 100 µM (AURKB): 68%
remaining binding at 100 µM (CLK2): 60%
remaining binding at 100 µM (RIPK5): 61%
remaining binding at 100 µM [1]: 68%
remaining binding at 100 µM (PHKG2): 84%
remaining binding at 100 µM (TAOK3): 73%
remaining binding at 100 µM (MKNK1): 62%
remaining binding at 100 µM (EPHB3): 62%
remaining binding at 100 µM (MYLK): 51%
remaining binding at 100 µM (ROS1): 83%
remaining binding at 100 µM (MRCKB): 91%
remaining binding at 100 µM (TGFBR2): 77%
remaining binding at 100 µM (FLT3(D835Y)): 90%
remaining binding at 100 µM [2]: 54%
remaining binding at 100 µM (DAPK1): 65%
remaining binding at 100 µM (RIOK3): 89%
SMILES: C=C(C)[C@H]1CC=C(C)C(=O)C1 [S-carvone]
